Read-outs that look alike come from different tables or passages of the source.
What was measured:
[1] = biological target: T1, Recombinant STAT3 protein (STAT3 (G127-I722)) (Homo sapiens, UniProt P40763); test: STAT3 Fluorescence Polarization (FP) Assay; format: binding; conditions: probe 5-FAM-GpYLPQTV-NH2 2 nM, 45-minute incubation
T1 construct: Recombinant STAT3 protein (STAT3 (G127-I722))
Summary of the method: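 Compounds in serial dilution receive a premix of STAT3 (G127-I722, 25 nM) and fluorescent phosphotyrosine peptide 5-FAM-GpYLPQTV-NH2 (2 nM) at pH 7.4. After 45 min at room temperature, FP is measured and IC50 derived by nonlinear regression.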

[2] = biological target: T2, Recombinant STAT6 protein (STAT6 (W123-T658)) (Homo sapiens, UniProt P42226); test: STAT6 Fluorescence Polarization (FP) Assay; format: binding; conditions: probe 5-FAM-Ap[…]-NH2 2 nM, 45-minute incubation
T2 construct: Recombinant STAT6 protein (STAT6 (W123-T658))
T2 sequence (P42226 123-658): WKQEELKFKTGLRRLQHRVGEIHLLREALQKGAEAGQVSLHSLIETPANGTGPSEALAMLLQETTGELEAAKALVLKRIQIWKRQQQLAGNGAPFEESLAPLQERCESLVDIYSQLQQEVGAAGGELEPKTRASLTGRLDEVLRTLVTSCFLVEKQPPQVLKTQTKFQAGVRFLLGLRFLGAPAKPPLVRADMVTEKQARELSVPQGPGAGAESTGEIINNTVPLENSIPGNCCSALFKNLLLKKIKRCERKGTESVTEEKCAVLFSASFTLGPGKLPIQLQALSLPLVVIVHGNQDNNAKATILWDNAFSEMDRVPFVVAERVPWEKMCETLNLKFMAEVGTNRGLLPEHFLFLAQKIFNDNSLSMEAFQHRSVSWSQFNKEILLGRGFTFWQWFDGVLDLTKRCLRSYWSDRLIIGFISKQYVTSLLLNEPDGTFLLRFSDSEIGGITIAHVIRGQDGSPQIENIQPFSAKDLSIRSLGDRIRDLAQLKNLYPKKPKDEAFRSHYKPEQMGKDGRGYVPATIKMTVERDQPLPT
Summary of the method: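 STAT6 (W123-T658) at 250 nM was mixed with 2 nM 5-FAM-labeled phosphotyrosine peptide probe in HEPES pH 7.4 buffer with NaCl, EDTA, Tween 20 and DTT, then added to serially diluted compounds at 1% DMSO final. Polarization was read after 45 min at room temperature; IC50 came from nonlinear regression of mP versus log concentration.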

[3] = STAT3 (G127-I722) 25 nM, read-out: STAT3 (FP assay IC50 class)
[4] = STAT6 (W123-T658) 250 nM, read-out: STAT6 (FP assay IC50 class)
[5] = STAT3 25 nM, read-out: STAT3 (FP assay IC50)
[6] = STAT6 250 nM, read-out: STAT6 (FP assay IC50)

T1 sequence (P40763 127-722): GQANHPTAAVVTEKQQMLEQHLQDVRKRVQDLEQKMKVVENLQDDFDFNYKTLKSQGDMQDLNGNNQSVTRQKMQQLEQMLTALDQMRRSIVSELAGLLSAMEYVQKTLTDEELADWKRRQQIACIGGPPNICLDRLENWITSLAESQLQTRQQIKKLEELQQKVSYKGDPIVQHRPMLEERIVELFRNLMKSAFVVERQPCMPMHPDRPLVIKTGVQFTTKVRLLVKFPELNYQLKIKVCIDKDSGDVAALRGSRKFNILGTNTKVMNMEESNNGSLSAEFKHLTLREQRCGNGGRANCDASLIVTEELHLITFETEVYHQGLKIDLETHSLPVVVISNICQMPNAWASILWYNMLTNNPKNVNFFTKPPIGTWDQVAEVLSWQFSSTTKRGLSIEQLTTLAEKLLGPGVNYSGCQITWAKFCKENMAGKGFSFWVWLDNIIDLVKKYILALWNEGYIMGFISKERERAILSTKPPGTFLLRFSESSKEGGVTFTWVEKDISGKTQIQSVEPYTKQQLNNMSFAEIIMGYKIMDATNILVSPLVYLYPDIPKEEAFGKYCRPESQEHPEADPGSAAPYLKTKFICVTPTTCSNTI

IC50 [1, 3] [nM]	IC50 [2, 4] [nM]	IC50 [1, 5] [nM]	IC50 [2, 6] [nM]	Structure (SMILES)
100 to 1000	≤ 300			O=C(N[C@H]1CCC[C@H]2CC[C@@H](C(=O)N3CCOC(c4cccnc4)C3)N2C1=O)c1cc2cc(C(F)(F)P(=O)(O)O)ccc2s1 (stereo partly drawn) [Compound 1124, (difluoro(2-(((3S,6S,9aS)-5-oxo-3-(2-(pyridin-3-yl)morpholine-4-carbonyl)octahydro-1H-pyrrolo[1,2-a]azepin-6-yl)carbamoyl)benzo[b]thiophen-5-yl)methyl)phosphonic acid]
1000 to 10000	3000 to 30000			O=C(N[C@H]1CCC[C@H]2CC[C@@H](C(=O)N3CC(C4=CCOCC4)C3)N2C1=O)c1cc2cc(CP(=O)(O)O)ccc2s1 [Compound 697, ((2-(((3S,6S,9aS)-3-(3-(3,6-dihydro-2H-pyran-4-yl)azetidine-1-carbonyl)-5-oxooctahydro-1H-pyrrolo[1,2-a]azepin-6-yl)carbamoyl)benzo [b]thiophen-5-yl)methyl) phosphonic acid]
100 to 1000	300 to 3000			O=C(N[C@H]1CCCC[C@H]2CC[C@@H](C(=O)NCc3cnc4[nH]ccc4c3)N2C1=O)c1cc2cc(C(F)(F)P(=O)(O)O)ccc2s1 [Compound 1114, ((2-(((3S,6S,10aS)-3-(((1H-pyrrolo[2,3-b]pyridin-5-yl)methyl)carbamoyl)-5-oxodecahydropyrrolo[1,2-a]azocin-6-yl)carbamoyl)benzo[b]thiophen-5-yl)difluoromethyl)phosphonic acid]
1000 to 10000	≤ 300			N#C[C@@H]1[C@@H](c2ccccc2)CN(C(=O)[C@@H]2CC[C@@H]3CCCC[C@H](NC(=O)c4cc5cc([C@H](F)P(=O)(O)O)ccc5s4)C(=O)N32)C12CC2 (single isomer, unassigned) [Compound 835]
1000 to 10000	≤ 300			N#C[C@H]1[C@H](c2ccccc2)CN(C(=O)[C@@H]2CC[C@@H]3CCCC[C@H](NC(=O)c4cc5cc(CP(=O)(O)O)ccc5s4)C(=O)N32)C12CC2 [Compound 929, ((2-(((3S,6S,10aS)-3-((6R,7S)-7-cyano-6-phenyl-4-azaspiro[2.4]heptane-4-carbonyl)-5-oxodecahydropyrrolo [1,2-a]azocin-6-yl)carbamoyl)benzo [b]thiophen-5-yl)methyl) phosphonic acid]
100 to 1000	3000 to 30000			C[C@@H]1COCCN1c1ccncc1C1CN(C(=O)[C@@H]2CC[C@@H]3CCC[C@H](NC(=O)c4cc5cc(CP(=O)(O)O)ccc5s4)C(=O)N32)C1 [Compound 860, ((2-(((3S,6S,9aS)-3-(3-(4-((R)-3-methylmorpholino)pyridin-3-yl)azetidine-1-carbonyl)-5-oxooctahydro-1H-pyrrolo[1,2-a]azepin-6-yl)carbamoyl)benzo [b]thiophen-5-yl)methyl) phosphonic acid]

Further lines, the compound ahead of its results:

Structure (SMILES)	IC50 [1, 3] [nM]	IC50 [2, 4] [nM]	IC50 [1, 5] [nM]	IC50 [2, 6] [nM]
COc1cccc([C@H]2CN(C(=O)[C@@H]3CC[C@@H]4CCCC[C@H](NC(=O)c5cc6cc(C(F)(F)P(=O)(O)O)ccc6s5)C(=O)N43)C[C@@H]2C#N)n1 (racemic) [Compound 105, ((2-(((3S,6S,10aS)-3-(rel-(trans) 3-cyano-4-(6-methoxypyridin-2-yl)pyrrolidine-1-carbonyl)-5-oxodecahydropyrrolo [1,2-a]azocin-6-yl)carbamoyl)benzo[b]thiophen-5-yl)difluoromethyl) phosphonic acid]			100 to 1000	≤ 300
CO[C@H]1CCN(c2ccncc2C2CN(C(=O)[C@@H]3CC[C@@H]4CCC[C@H](NC(=O)c5cc6cc(CP(=O)(O)O)ccc6s5)C(=O)N43)C2)C1 [Compound 686, ((2-(((3S,6S,9aS)-3-(3-(4-((S)-3-methoxypyrrolidin-1-yl)pyridin-3-yl)azetidine-1-carbonyl)-5-oxooctahydro-1H-pyrrolo[1,2-a]azepin-6-yl)carbamoyl)benzo [b]thiophen-5-yl)methyl) phosphonic acid]	< 100	3000 to 30000		
O=C(N[C@H]1CCCC[C@H]2CC[C@@H](C(=O)N3CCC(c4n[nH]cc4F)CC3)N2C1=O)c1cc2cc(C(F)P(=O)(O)O)ccc2s1 (stereo partly drawn) [Compound 587, (fluoro(2-(((3S,6S,10aS)-3-(4-(4-fluoro-1H-pyrazol-3-yl)piperidine-1-carbonyl)-5-oxodecahydropyrrolo[1,2-a]azocin-6-yl)carbamoyl)benzo[b]thiophen-5-yl)methyl)phosphonic acid]	1000 to 10000	3000 to 30000		
CN(C(=O)[C@@H]1CC[C@@H]2CCCC[C@H](NC(=O)c3cc4cc(C(F)(F)P(=O)(O)O)ccc4s3)C(=O)N21)c1ccc2nnccc2c1 [Compound 24, ((2-(((3S,6S,10aS)-3-(cinnolin-6-yl (methyl)carbamoyl)-5-oxodecahydropyrrolo [1,2-a]azocin-6-yl)carbamoyl)benzo[b]thiophen-5-yl)difluoromethyl) phosphonic acid]			100 to 1000	≤ 300
N#C[C@H]1CN(C(=O)[C@@H]2CC[C@@H]3CCCCC[C@H](NC(=O)c4cc5cc(C(F)(F)P(=O)(O)O)ccc5s4)C(=O)N32)C[C@@H]1c1ccccc1 (racemic) [Compound 75, ((2-(((3S,6S,11aS)-3-(rel-(trans)-3-cyano-4-phenylpyrrolidine-1-carbonyl)-5-oxodecahydro-1H-pyrrolo[1,2-a]azonin-6-yl)carbamoyl)benzo[b]thiophen-5-yl)difluoromethyl) phosphonic acid]			1000 to 10000	≤ 300
COc1ccn(C2CN(C(=O)[C@@H]3CC[C@@H]4CCC[C@H](NC(=O)c5cc6cc(C(F)P(=O)(O)O)ccc6s5)C(=O)N43)C2)n1 (stereo partly drawn) [Compound 633, (fluoro(2-(((3S,6S,9aS)-3-(3-(3-methoxy-1H-pyrazol-1-yl)azetidine-1-carbonyl)-5-oxooctahydro-1H-pyrrolo[1,2-a]azepin-6-yl)carbamoyl)benzo [b]thiophen-5-yl)methyl) phosphonic acid]	100 to 1000	3000 to 30000		
Cc1nnc([C@H]2[C@H](c3ccccc3)CN2C(=O)[C@@H]2CC[C@@H]3CCC[C@H](NC(=O)c4cc5cc(C(F)P(=O)(O)O)ccc5s4)C(=O)N32)o1 (single isomer, unassigned) [Compound 674]	100 to 1000	3000 to 30000		
O=C(N[C@H]1CCC[C@H]2CC[C@@H](C(=O)N3CC(C(=O)N4CCOCC4)C3)N2C1=O)c1cc2cc(C(F)(F)P(=O)(O)O)ccc2s1 [Compound 94, (difluoro(2-(((3S,6S,9aS)-3-(3-(morpholine-4-carbonyl)azetidine-1-carbonyl)-5-oxooctahydro-1H-pyrrolo[1,2-a]azepin-6-yl)carbamoyl)benzo[b]thiophen-5-yl)methyl) phosphonic acid]			100 to 1000	3000 to 30000
NC(=O)N1CC(NC(=O)[C@@H]2CC[C@@H]3CCCC[C@H](NC(=O)c4cc5cc(C(F)P(=O)(O)O)ccc5s4)C(=O)N32)C1 (stereo partly drawn) [Compound 549, ((2-(((3S,6S,10aS)-3-((1-carbamoylazetidin-3-yl)carbamoyl)-5-oxodecahydropyrrolo[1,2-a]azocin-6-yl)carbamoyl)benzo[b]thiophen-5-yl)fluoromethyl)phosphonic acid]	< 100	3000 to 30000		
CO[C@@H]1CC[C@@H](NC(=O)[C@@H]2CC[C@@H]3CCC[C@H](NC(=O)c4cc5cc(C(F)P(=O)(O)O)ccc5s4)C(=O)N32)C1 (stereo partly drawn) [Compound 536, (fluoro(2-(((3S,6S,9aS)-3-(((1R,3R)-3-methoxycyclopentyl)carbamoyl)-5-oxooctahydro-1H-pyrrolo[1,2-a]azepin-6-yl)carbamoyl)benzo[b]thiophen-5-yl)methyl)phosphonic acid]	1000 to 10000	3000 to 30000		
Cc1ccnc(F)c1C1CN(C(=O)[C@@H]2CC[C@@H]3CCC[C@H](NC(=O)c4cc5cc(CP(=O)(O)O)ccc5s4)C(=O)N32)C1 [Compound 505, ((2-(((3S,6S,9aS)-3-(3-(2-fluoro-4-methylpyridin-3-yl)azetidine-1-carbonyl)-5-oxooctahydro-1H-pyrrolo[1,2-a]azepin-6-yl)carbamoyl)benzo[b]thiophen-5-yl)methyl)phosphonic acid]	1000 to 10000	3000 to 30000		
O=C(N[C@H]1CCC[C@H]2CC[C@@H](C(=O)N3CC(c4ccccc4O)C3)N2C1=O)c1cc2cc(C(F)P(=O)(O)O)ccc2s1 (stereo partly drawn) [Compound 608, (fluoro(2-(((3S,6S,9aS)-3-(3-(2-hydroxyphenyl)azetidine-1-carbonyl)-5-oxooctahydro-1H-pyrrolo[1,2-a]azepin-6-yl)carbamoyl)benzo [b]thiophen-5-yl)methyl) phosphonic acid]	< 100	300 to 3000		

— patent US20250215029A1 (Recludix Pharma, Inc., priority 2022, published 2025)
